Results on 16 molecules are retold here after patent US11185074B2, “Microbiocidal quinoline (thio)carboxamide derivatives” (SYNGENTA PARTICIPATIONS AG, priority 2017, dated 2021).

Like-named read-outs stand apart in the source and are kept apart here.

Series [1] concerns Magnaporthe grisea (Pyricularia oryzae). Briefly: microbe, parasite or virus in culture. As to conditions: 72 h, read-out: control of Magnaporthe grisea. The format is cell-based.
Series [2] has as its system Botryotinia fuckeliana (Botrytis cinerea). Briefly: Botryotinia fuckeliana (Botrytis cinerea) / liquid culture (gray mould). The format is cell-based. As to conditions: 72 h, read-out: control of Botryotinia fuckeliana.
Series [3] concerns Glomerella lagenarium (Colletotrichum lagenarium). Briefly: Glomerella lagenarium (Colletotrichum lagenarium) / liquid culture (anthracnose). The format is cell-based. As to conditions: Colletotrichum orbiculare, read-out: control of Glomerella lagenarium.
Series [4] concerns Monographella nivalis (Microdochium nivale). Briefly: Monographella nivalis (Microdochium nivale) / liquid culture (foot rot cereals). The class given is cell-based. As to conditions: 96 h, inhibition of growth photometrically 4-5 days after application, compared to untreated control.
Another series relates to Fusarium culmorum. Briefly: microbe, parasite or virus in culture. The class given is cell-based. As to conditions: read-out: control of Fusarium culmorum.
The mark [5] stands for this setting: 20 ppm, liquid culture, inhibition of growth photometrically 3-4 days after application, compared to untreated control.

With `CC(C)=CCC(C)(CC(C)C)NC(=O)c1cnc2ccccc2c1` (stereo not shown) [E-13], the inhibition of growth at 20 ppm (in series [1]; in series [2] (setting [5]); in series [3] (setting [5]); in series [4]; in the series with Fusarium culmorum) was no less than 80% each time.

Turning to `CC(C)(NC(=O)c1cnc2c(F)cccc2c1)C1CCCCC1` [E-7], the inhibition of growth at 20 ppm (in series [2] (setting [5]); in series [3] (setting [5]); in series [4]; with Fusarium culmorum) was no less than 80% throughout.

Consider `CCC(CC)CC(C)NC(=O)c1cnc2c(C)cccc2c1` (stereo not shown) [E-39], for which the inhibition of growth at 20 ppm (in series [2] (setting [5]); in series [3] (setting [5]); with Fusarium culmorum) was no less than 80% throughout.

Regarding `CCC(CC)CC(C)NC(=O)c1cnc2c(F)cccc2c1` (stereo not shown) [E-40], the inhibition of growth at 20 ppm (in series [2] (setting [5]); in series [3] (setting [5]); in series [4]; in the series with Fusarium culmorum) was no less than 80% each time.

Take `CCC(CC)CC(C)NC(=O)c1cnc2ccccc2c1` (stereo not shown) [E-38]: the inhibition of growth at 20 ppm (in series [2] (setting [5]); in series [3] (setting [5]); in series [4]; with Fusarium culmorum) was no less than 80% in each case.

As for `CC(C)=C(C)CC(C)(CC(C)C)NC(=O)c1cnc2c(F)cccc2c1` (stereo not shown) [E-15], the inhibition of growth at 20 ppm (in series [1]; in series [2] (setting [5]); in series [3] (setting [5]); in series [4]; in the series with Fusarium culmorum) was no less than 80% throughout.

On to `CC(C)(C/C=C/c1ccccc1)NC(=O)c1cnc2c(F)c(F)ccc2c1` [E-34], for which the inhibition of growth at 20 ppm (in series [2] (setting [5]); in series [4]; in the series on Fusarium culmorum) was no less than 80% in each case.

As to `C/C(=C\c1ccccc1)CC(C)(C)NC(=O)c1cc2cccc(F)c2nc1C`, the melting point was in the range of 108 to 110 °C.

`CCCC(C)CC(C)NC(=O)c1cnc2ccccc2c1` (stereo not shown) [E-41]: the inhibition of growth at 20 ppm (in series [2] (setting [5]); in series [3] (setting [5]); with Fusarium culmorum) was no less than 80% in each case.

As to `CCCC(C)CC(C)NC(=O)c1cnc2c(F)cccc2c1` (stereo not shown) [E-51], the inhibition of growth at 20 ppm (in series [2] (setting [5]); in series [3] (setting [5]); in series [4]; in the series with Fusarium culmorum) was no less than 80% throughout.

`CC(C)CC(C)(C#N)NC(=O)c1cnc2c(F)cccc2c1` (stereo not shown) [E-35] had a melting point of 167 to 171 °C. Besides, in the series with Fusarium culmorum, the inhibition of growth at 20 ppm was no less than 80%.

As to `CCCCCC(C)(C)NC(=O)c1cnc2c(F)cccc2c1` [E-1], the inhibition of growth at 20 ppm (in series [2]; in series [3]; in the series with Fusarium culmorum) was no less than 80% throughout.

In the case of `CCC(CC)CC(C)(CC(F)(F)F)NC(=O)c1cnc2c(C)cccc2c1` (stereo not shown) [E-44], the inhibition of growth at 20 ppm (in series [1]; in series [2] (setting [5]); in series [3] (setting [5]); in series [4]; in the series on Fusarium culmorum) was no less than 80% in each case.

As to `CC(C)CC(C)CC(C)(C)NC(=O)c1cnc2c(F)cccc2c1` (stereo not shown) [E-22], the inhibition of growth at 20 ppm (in series [1]; in series [2] (setting [5]); in series [3] (setting [5]); in series [4]; with Fusarium culmorum) was no less than 80% in each case.

On to `CC(CC1CC=CCC1)NC(=O)c1cnc2ccccc2c1` (stereo not shown) [E-49], for which the inhibition of growth at 20 ppm (in series [2] (setting [5]); in series [3] (setting [5]); in the series with Fusarium culmorum) was no less than 80% each time.

`CC(C)CC=CCC(C)(C)NC(=O)c1cnc2c(F)c(F)ccc2c1` [E-33]: the inhibition of growth at 20 ppm (in series [2] (setting [5]); in series [3] (setting [5]); in series [4]; in the series on Fusarium culmorum) was no less than 80% throughout.

For orientation: melting point means the temperature of the solid-liquid transition.
